The values that follow are results of earlier work, collected in patent US20040266650A1, “Washing and/or cleaning article” (priority 2001, published 2004).

≈ marks a conversion by molar mass, not a printed value. Like-named read-outs stand apart in the source and are kept apart here.

`O=C(O)CC(O)C(=O)O` (racemic) [DL-Malic acid]: the Solubility (usually how much of the substance goes into solution per volume) is, setting by setting: (Table 2, in water at 26° C.) 1440 mg/mL (≈ 10700 mM); (Table 3, in water at 26° C.) 1440 mg/mL (≈ 10700 mM).

Consider `[Cl-].[Cs+]` [Cesium chloride], for which, where the note is “Table 2, in water at 20° C.”, the Solubility is 1800 mg/mL.

As to `O=C[C@H](O)[C@@H](O)[C@@H](O)[C@H](O)CO` [D(+)-Galactose], the Solubility (Table 2, in water at 25° C.) is 680 mg/mL (≈ 3770 mM).

As for `O=C(CO)[C@@H](O)[C@H](O)[C@@H](O)CO` [L-(−)-Sorbose], the Solubility (Table 2, in water at 17° C.) is 550 mg/mL (≈ 3050 mM).

On to `O=C(O)/C=C\C(=O)O` [Maleic acid], for which the Solubility is, setting by setting: (Table 2, in water at 25° C.) 788 mg/mL (≈ 6790 mM); (Table 3, in water at 25° C.) 788 mg/mL (≈ 6790 mM).

As to `[Cl-].[K+]` [Potassium chloride], the Solubility (Table 2, in water at 20° C.) is 340 mg/mL.

Consider `NC(N)=O` [Urea], for which, for the setting “Table 2, in water at 20° C.”, the Solubility was 1080 mg/mL (≈ 18000 mM).

`[Cl-].[Cl-].[Zn+2]` [Zinc chloride]: where the note is “Table 2, in water at 20° C.”, the Solubility was 3680 mg/mL.

For Sodium polyphosphate, the Solubility (Table 2, in water at 20° C.) was 1000 mg/mL and the Solubility (Table 3, in water, no temperature printed (Table 2: 20° C.)) is 1000 mg/mL.
